From PMC10249896, “AI-Assisted chemical probe discovery for the understudied Calcium-Calmodulin Dependent Kinase, PNCK” (PLOS Computational Biology, 2023) come the findings set out here.

Structures are written as SMILES. Several values for one entry are separate records, joined by “and”; a condition that tells them apart may be missing. Equal entries are not always repeated. Where two headings read alike, the source gives them in different places.

In data set [1] the target is T1, GST-tagged PNCK recombinant protein (Homo sapiens, UniProt Q6P2M8).
T1 construct: GST; purchased Novus NBP1-99886
Kind of data set: ADP-Glo Kinase Assay, biochemical PNCK inhibitor screen. The settings on record: for inhibition at 10 µM: read-out: Avg. Normalized % Inhibition, 10uM, ADP Kinase Glo. The procedure: ADP-Glo Kinase Assay (V6930, Promega) was used to screen the first round of compounds against PNCK. […] Autocamtide-II (GenScript RP10271) was used as the peptide substrate. This peptide was dissolved in water and prepared immediately prior to the assay. Calcium/Calmodulin 10X (Abcam ab189137) solution was used to create a custom kinase buffer: 40mM Tris,pH 7.5; 20mM MgCl2; 0.1mg/ml BSA; 50μM DTT and Ca2+/Calmodulin solution (0.03μg/μl, Calmodulin, 1mM Tris,pH 7.3, 0.5mM CaCl2). […] A standard curve was then done to determine the amount of protein needed to generate a signal in the linear range of the ATP curve. 100ng of PNCK and 2ng of substrate was used per well in the 96-well plate format of this assay. […] Plates were read using the Clariostar Plus. Data was normalized to a DMSO and staurosporine controls.
(§1) Data analysis of ADP Kinase Glo results were carried out per the manufacturer’s instructions. Results were represented as a percent decrease in activity. Data was normalized to staurosporine (positive control) as 100% decrease and DMSO (negative control) as a 0% decrease. Data for NanoBRET was analyzed by dividing the acceptor by the donor emission and […] to obtain raw millibret units (mBU). Background was subtracted using control emission averages. Data was normalized to positive and negative controls of staurosporine and DMSO. Concentration-response curves were plotted in GraphPad Prism 8 and IC50s were extrapolated using non-linear fit with concentrations transformed to logarithmic scale. Baseline was held constant and represented the average mBU of staurosporine controls while the top was constrained to represent the average mBU of DMSO controls. Error bars on dose-response curves represent standard deviations.

For data set [2], the target named is T2, PNCK Nano-luciferase fusion (Homo sapiens, UniProt Q6P2M8).
T2 construct: host or cells: HEK293
T2 sequence (Q6P2M8 whole entry, the tested form may be a part): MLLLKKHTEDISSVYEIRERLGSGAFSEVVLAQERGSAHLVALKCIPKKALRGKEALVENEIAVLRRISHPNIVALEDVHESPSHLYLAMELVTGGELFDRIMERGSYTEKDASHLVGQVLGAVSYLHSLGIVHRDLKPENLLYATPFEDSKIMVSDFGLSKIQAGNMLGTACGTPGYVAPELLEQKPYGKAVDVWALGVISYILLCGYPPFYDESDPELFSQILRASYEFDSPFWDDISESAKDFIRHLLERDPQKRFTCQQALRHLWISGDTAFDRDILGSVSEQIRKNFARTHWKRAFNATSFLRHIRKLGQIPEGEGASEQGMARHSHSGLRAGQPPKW
Briefly: NanoBRET Target Engagement Intracellular Kinase Assay, cell-based PNCK binding screen and dose response in HEK293 cells. The settings on record: for IC50: 8-point concentration-response; for cell permeability: stated on testing in NanoBRET assay; for NanoBRET binding, result in words: cell-based screen / comparison with parent hit. The procedure: The NanoBRET Target Engagement Intracellular Kinase Assay (Promega N2520) is a cell-based binding screen which reads loss of BRET signal as a result of target binding. A PNCK Nano-luciferase fusion vector plasmid was generated custom by Promega. The K-10 tracer was used for the assay, as determined by Promega. The plasmid was maxiprepped by Genewiz for use in all future assays. HEK293 cells were seeded in a T175 flask in DMEM with 10% FBS. The following day, cells were counted to 10,000, resuspended in assay media (Optimem with no phenol red, 1% FBS). Plasmid and transfection reagent (Fugene HD, Promega E2311) were added to the mixture and cells were seeded in a white 96-well plate. After 20–24 hours, media was changed, and the assay proceeded according to protocol. K10 tracer was added at the recommended concentration of 1uM while compounds were initially screened at both 10uM and 1uM. Cells incubated with compound at 37 degrees Celsius for a maximum of 2 hours before the plate was read using Clariostar Plus. Data was normalized to Staurosporine and DMSO controls. For compounds selected for further analysis, dose response curves were generated using the same testing protocol but at 8 different concentrations: 24uM, 12uM, 6uM, 3uM, 1.5uM, .75uM 0.375uM and 0.1875uM. UM195 was tested with concentrations from 12uM to 0.09375. Similarly, compounds from the analog by catalog analysis were tested at concentrations from 24uM to 0.1875uM.
as §1

Setting [3] is: compound 10uM, 25uM ATP, normalized to DMSO and staurosporine controls.
The mark [4] stands for this setting: compound 1uM, HEK293, K10 tracer 1uM, normalized to staurosporine and DMSO, read-out: Avg. Normalized % Inhibition, 1uM, Nanobret.
The mark [5] stands for this setting: compound 10uM, HEK293, K10 tracer 1uM, normalized to staurosporine and DMSO, read-out: Avg. Normalized % Inhibition, 10uM, Nanobret.

For `O=C(O)c1ccc(-c2nc3c([nH]2)CCN(C(=O)c2cc(C4CC4)n[nH]2)C3)cc1` [UM_034], the inhibition at 10 µM in data set [1] (setting [3]) was determined as 51.7%; in data set [2] (setting [5]), 7.78%. In addition, the inhibition at 1 µM in data set [2] (setting [4]) was determined as 6.51%.
Take `O=C1NC(=O)C(=Cc2ccc(Sc3nc4ccccc4[nH]3)o2)C(=O)N1` [UM_036]: the inhibition at 10 µM in data set [1] was determined as 39.2%; in data set [2] (HEK293, read-out: Avg. Normalized % Inhibition, 10uM, Nanobret), 16.8%. For the same compound, the inhibition at 1 µM in data set [2] (HEK293, read-out: Avg. Normalized % Inhibition, 1uM, Nanobret) is 2.83%.
For `COc1ccccc1CNc1ncnc2sc(C(=O)O)c(C)c12` [UM_035], the “Avg. Normalized % Inhibition, 10uM, ADP Kinase Glo” value in data set [1] (setting [3]) was found to be 75.66%. In addition, in data set [2] (setting [4]), the inhibition at 1 µM was found to be 0%. For the same compound, the inhibition at 10 µM in data set [2] (setting [5]) came to 13.6%.
With `O=C(O)Cc1cc(C2CCN(C(=O)c3ccc(C(F)(F)F)nc3O)CC2)[nH]n1` [UM_031], the values for the inhibition at 10 µM in data set [1] (setting [3]) and in data set [2] (setting [5]) were 7.65% and 14.6%, respectively. The inhibition at 1 µM in data set [2] (setting [4]) was 13.3%.
For the compound `COc1ccc(C(=O)/C=C/c2n[nH]c3cc(C(=O)O)ccc23)c(F)c1` [UM_020], the “Avg. Normalized % Inhibition, 10uM, ADP Kinase Glo” value in data set [1] (setting [3]) is “Negligible”. In data set [2] (setting [4]), the inhibition at 1 µM was 0%. For the same compound, the inhibition at 10 µM in data set [2] (setting [5]) came to 0%.
`Cc1ccc2[nH]c(SCc3cc(=O)n4ccccc4n3)nc2c1` [UM_197]: in data set [2] (setting [4]), the inhibition at 1 µM turned out to be 1.23%. The inhibition at 10 µM in data set [2] (setting [5]) stood at 27%.
For `O=C1CCCc2c1cnc1nc(N3CCCCC3)nc(O)c21` [UM_232] the same measures were 1.49% and 10.9%.
`O=c1[nH]c(CSc2ccc3ccccc3n2)nc2ccc(Cl)cc12` [UM_210, 6-chloro-2-[(quinolin-2-ylsulfanyl)methyl]-3,4-dihydroquinazolin-4-one]: in data set [2] (HEK293), the IC50 worked out at 8.09 µM. In addition, the “Dose-Response Curve Data (NanoBRET signal, replicates)” value (shortened to “Dose-Response Curve Data”) in data set [2] (Concentration 1.20E-05 M) is 7.35 and 5.53 and 7.51 and 6.90; in data set [2] (Concentration 1.50E-06 M), 8.14 and 8.22 and 8.79 and 8.09; in data set [2] (Concentration 1.88E-07 M) it was 8.61 and 9.43 and 9.50 and 8.74; in data set [2] (Concentration 2.40E-05 M), 4.79 and 5.28 and 5.02 and 4.59; in data set [2] (Concentration 3.00E-06 M), 7.91 and 7.57 and 6.47 and 7.46; in data set [2] (Concentration 3.75E-07 M), 9.79 and 9.21 and 8.99 and 8.71. The “Dose-Response Curve Data” value in data set [2] (Concentration 6.00E-06 M) is 7.06 and 7.86 and 6.98 and 6.97; in data set [2] (Concentration 7.50E-07 M), 8.34 and 8.97 and 8.05 and 9.09. Also, in data set [2] (setting [4]), the inhibition at 1 µM came to 41.2%. The inhibition at 10 µM in data set [2] (setting [5]) worked out at 98.5%.
With `Cc1nc2c(c(=O)[nH]1)CCN(Cc1cc3ccccc3n(C)c1=O)CC2` [UM_231], the inhibition at 1 µM in data set [2] (setting [4]) was 25.9%. In addition, the inhibition at 10 µM in data set [2] (setting [5]) came to 46.3%.
For `N#Cc1cnc(Sc2nnc(-c3ccccc3)o2)cn1` [UM_253] the same measures were 4.54% and 55.6%.
For `COc1ccc2[nH]c(SCc3cc(=O)n4c(C)cccc4n3)nc2c1` [UM_196] the same measures were 3.82% and 30.5%.
For `COc1cccc(-n2nnc3c(=O)n(CC(=O)N4CCCC4)cnc32)c1` [UM_230] the same measures were 21.2% and 55.1%.
Turning to `O=C1CCCCCN1CCc1nc(-c2cccnn2)no1` [UM_242], the cell permeability result in data set [2] was “not cell permeable”.
As for `C[C@@H]1CCc2c(sc(NC(=O)c3ccc(Cl)s3)c2C(N)=O)C1` [UM_228, (6R)-2-(5-chlorothiophene-2-amido)-6-methyl-4,5,6,7-tetrahydro-1-benzothiophene-3-carboxamide], the IC50 in data set [2] (HEK293) is 8.32 µM. Also, the “Dose-Response Curve Data” value was 6.59 and 6.36 and 6.71 in data set [2] (Concentration 1.20E-05 M); 8.32 and 8.64 and 8.50 in data set [2] (Concentration 1.50E-06 M); 8.44 and 8.73 and 8.35 in data set [2] (Concentration 1.88E-07 M); 5.75 and 5.50 and 5.61 in data set [2] (Concentration 2.40E-05 M); 8.33 and 8.45 and 7.70 in data set [2] (Concentration 3.00E-06 M); 8.86 and 8.18 and 8.92 in data set [2] (Concentration 3.75E-07 M). Further, the “Dose-Response Curve Data” value was 7.13 and 7.60 and 7.05 in data set [2] (Concentration 6.00E-06 M); 8.73 and 8.94 and 8.43 in data set [2] (Concentration 7.50E-07 M). For the same compound, in data set [2] (setting [4]), the inhibition at 1 µM came out at 35.2%. In addition, in data set [2] (setting [5]), the inhibition at 10 µM was 97.6%.
As for `Cc1cc(C)n2nc(SCc3nc4ccccc4s3)nc2n1` [UM_218], the inhibition at 1 µM in data set [2] (setting [4]) amounted to 16.7%. Also, in data set [2] (setting [5]), the inhibition at 10 µM turned out to be 61.2%.
Take `CC1CCc2c(sc(NC(=O)CSc3ncnc4[nH]cnc34)c2C(N)=O)C1` (stereo not drawn) [UM_251]: the concentration for half-maximal inhibition (IC50) in data set [2] (HEK293) was 2.53 µM. The “Dose-Response Curve Data” value in data set [2] (Concentration 1.20E-05 M) was 4.13 and 4.23 and 4.54 and 4.39; in data set [2] (Concentration 1.50E-06 M), 6.59 and 7.07 and 6.74 and 7.03; in data set [2] (Concentration 1.88E-07 M), 7.33 and 7.01 and 6.90 and 7.62; in data set [2] (Concentration 2.40E-05 M), 4.23 and 3.92 and 4.54 and 4.39; in data set [2] (Concentration 3.00E-06 M), 6.43 and 6.10 and 6.50 and 6.24; in data set [2] (Concentration 3.75E-07 M), 7.22 and 7.21 and 7.00 and 7.10. The “Dose-Response Curve Data” value in data set [2] (Concentration 6.00E-06 M) is 4.64 and 5.22 and 4.89 and 5.32; in data set [2] (Concentration 7.50E-07 M) it was 7.22 and 6.99 and 7.34 and 6.94. Moreover, the “NanoBRET binding, result in words” value in data set [2] is given as “improving from the IC50 of UM_228 by one order of magnitude”. Besides, in data set [2] (setting [4]), the inhibition at 1 µM is 63.2%. In addition, the inhibition at 10 µM in data set [2] (setting [5]) came to 91.8%.
Turning to `N#Cc1cnc(Sc2nnc(C3CCCCC3)o2)cn1` [UM_256], the inhibition at 1 µM in data set [2] (setting [4]) was determined as 2.86%. Also, the inhibition at 10 µM in data set [2] (setting [5]) is 51%.
Turning to `O=C(O)c1cccc(NS(=O)(=O)/C=C/c2ccc(Cl)cc2)c1` [UM_235], the inhibition at 1 µM in data set [2] (setting [4]) was 4.02%. Moreover, the inhibition at 10 µM in data set [2] (setting [5]) worked out at 10.3%.
For `O=C(c1c(F)cc(F)cc1F)C1CCN(C(=O)c2ccnnc2)CC1` [UM_212], in that order: 0% and 49.9%.
For `O=c1[nH]c(CSc2nc3ccccc3o2)nc2ccc(Cl)cc12` [UM_280], the IC50 in data set [2] (HEK293) is 14.9 µM. For the same compound, the “NanoBRET binding, result in words” value in data set [2] was “did not demonstrate significantly improved binding”. In data set [2] (setting [4]), the inhibition at 1 µM was 33.4%. Moreover, the inhibition at 10 µM in data set [2] (setting [5]) turned out to be 74.7%.
On to `CNC(=O)[C@@H]1C[C@@H](N)CN1C(=O)CCc1nc(-c2cccnc2)no1` [UM_244], for which the cell permeability result in data set [2] is “not cell permeable”.
With `Cc1noc2ncnc(N3CCC(n4c(C)nc5ccccc54)CC3)c12` [UM_215], the inhibition at 1 µM in data set [2] (setting [4]) turned out to be 0%. Besides, the inhibition at 10 µM in data set [2] (setting [5]) was found to be 19.4%.
For `O=c1[nH]c2ccccc2n2c(SCCCn3c(=O)[nH]c4ccccc43)nnc12` [UM_273], in that order: 29% and 45.5%.
For `O=C(O)c1cccnc1SCCCN1C(=O)c2cccc3cccc(c23)C1=O` [UM_216], in that order: 2.34% and 25.4%.
`O=C(O)c1ccc(-c2nc(O)c3c4c(sc3n2)CCCC4)cc1` [UM_233]: the inhibition at 1 µM in data set [2] (setting [4]) was 7.37%. The inhibition at 10 µM in data set [2] (setting [5]) stood at 14.2%.
As for `c1ccc2c(-c3nnc(Sc4cnccn4)o3)cccc2c1` [UM_265], the inhibition at 1 µM in data set [2] (setting [4]) came to 21.5%. Also, in data set [2] (setting [5]), the inhibition at 10 µM was found to be 63.5%.
For `NC(=O)Nc1cccc(C(=O)Nc2cc3c(cc2Br)OCCO3)c1` [UM_222], the inhibition at 1 µM in data set [2] (setting [4]) stood at 28%. For the same compound, the inhibition at 10 µM in data set [2] (setting [5]) amounted to 71.1%.
